pIC50: −log10 of the molar value.
molecular target: T1, human LPA1 (Homo sapiens, UniProt Q92633); assay: LPA1 functional antagonist assay (LPA-induced calcium flux in CHO cells overexpressing human LPA1); type: cell-based; conditions: inhibition of calcium flux induced by 10 nM LPA, CHO cells overexpressing human LPA1; read-out: hLPA1 IC50
T1 construct: expressed in transfected cells; host or cells: Chinese hamster ovary (CHO) cells
Outline: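 CHO cells overexpressing human LPA1, dye-loaded 30 min at 37 °C, then given compound (0.08 nM–5 μM final, 0.5% DMSO) in HBSS/20 mM HEPES/0.1% fatty-acid-free BSA for 20 min at room temperature before 10 nM LPA. IC50 as 50% inhibition of LPA-evoked calcium flux, 4-parameter logistic fit.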

T1 sequence (Q92633 whole entry): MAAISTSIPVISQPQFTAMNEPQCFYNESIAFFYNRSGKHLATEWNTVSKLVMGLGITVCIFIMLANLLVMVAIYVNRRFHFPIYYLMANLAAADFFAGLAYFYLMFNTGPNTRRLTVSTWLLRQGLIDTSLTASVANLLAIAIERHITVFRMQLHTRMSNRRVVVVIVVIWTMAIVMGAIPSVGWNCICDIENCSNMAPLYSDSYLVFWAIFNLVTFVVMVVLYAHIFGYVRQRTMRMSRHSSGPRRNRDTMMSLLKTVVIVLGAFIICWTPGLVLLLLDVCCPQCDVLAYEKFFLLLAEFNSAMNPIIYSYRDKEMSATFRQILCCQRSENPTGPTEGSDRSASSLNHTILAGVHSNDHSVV

How did the pIC50 turn out when `CCCCNc1nnn(Cc2c(-c3ccc(O[C@H]4CCC[C@H](C(=O)O)C4)c(C)n3)nnn2C)n1` [Example 362, (1S,3S)-3-((6-(5-((5-(butylamino)-2H-tetrazol-2-yl)methyl)-1-methyl-1H-1,2,3-triazol-4-yl)-2-methyl-pyridin-3-yl)oxy)cyclohexane-1-carboxylic acid] was run?
The pIC50 was 6.50.

same assay, conditions: read-out: hLPA1 IC50

How did the pIC50 turn out when `Cc1nc(-c2nnn(C)c2Cn2nnc(N(CC3CC3)CC3CC3)n2)ccc1O[C@H]1CCC[C@H](C(=O)O)C1` [Example 358, (1S,3S)-3-((6-(5-((5-(bis(cyclo-propylmethyl)amino)-2H-tetrazol-2-yl)methyl)-1-methyl-1H-1,2,3-triazol-4-yl)-2-methylpyridin-3-yl)oxy)cyclohexane-1-carboxylic acid] was run?
The pIC50 was 6.02.

With `Cc1nc(-c2nnn(C)c2Cn2nnc(NCC3CC3)n2)ccc1O[C@H]1CCC[C@H](C(=O)O)C1` [Example 359, (1S,3S)-3-((6-(5-((5-((cyclopropylmethyl)amino)-2H-tetrazol-2-yl)methyl)-1-methyl-1H-1,2,3-triazol-4-yl)-2-methylpyridin-3-yl)oxy)cyclohexane-1-carboxylic acid] as the molecule, how does the pIC50 read?
Its pIC50 is 6.37.

How did the pIC50 turn out when `Cc1nc(-c2nnn(C)c2Cc2nnn(CC3CC3)n2)ccc1O[C@H]1CCC[C@H](C(=O)O)C1` [Example 360, (1S,3S)-3-((6-(5-((2-(cyclopropyl-methyl)-2H-tetrazol-5-yl)methyl)-1-methyl-1H-1,2,3-triazol-4-yl)-2-methylpyridin-3-yl)oxy)cyclo-hexane-1-carboxylic acid] was run?
Its pIC50 is 7.04.

With `CCCCN(C)c1nnn(Cc2c(-c3ccc(O[C@H]4CCC[C@H](C(=O)O)C4)c(C)n3)nnn2C)n1` [Example 361, (1S,3S)-3-((6-(5-((5-(butyl(methyl)amino)-2H-tetrazol-2-yl)methyl)-1-methyl-1H-1,2,3-triazol-4-yl)-2-methylpyridin-3-yl)oxy)cyclo-hexane-1-carboxylic acid] as the molecule, how does the pIC50 read?
The pIC50 was 6.64.

With `CCCCN(CCCC)c1nnn(Cc2c(-c3ccc(O[C@H]4CCC[C@H](C(=O)O)C4)c(C)n3)nnn2C)n1` [Example 363, (1S,3S)-3-((6-(5-((5-(dibutylamino)-2H-tetrazol-2-yl)methyl)-1-methyl-1H-1,2,3-triazol-4-yl)-2-methyl-pyridin-3-yl)oxy)cyclohexane-1-carboxylic acid] as the molecule, how does the pIC50 read?
The pIC50 was 6.64.

`Cc1nc(-c2nnn(C)c2Cn2nnc(N(C)Cc3ccccc3)n2)ccc1O[C@H]1CCC[C@H](C(=O)O)C1` [Example 364, (1S,3S)-3-((6-(5-((5-(benzyl(methyl)amino)-2H-tetrazol-2-yl)methyl)-1-methyl-1H-1,2,3-triazol-4-yl)-2-methylpyridin-3-yl)oxy)cyclohexane-1-carboxylic acid] was tested. Which pIC50 did it give?
Its pIC50 is 6.56.

`CCCCn1nnnc1Cc1c(-c2ccc(O[C@H]3CCC[C@H](C(=O)O)C3)c(C)n2)nnn1C` [Example 365, (1S,3S)-3-((6-(5-((1-butyl-1H-tetrazol-5-yl)methyl)-1-methyl-1H-1,2,3-triazol-4-yl)-2-methylpyridin-3-yl)oxy)cyclohexane-1-carboxylic acid] was tested. Which pIC50 did it give?
The pIC50 was 6.49.

`CCCCn1nnc(Cc2c(-c3ccc(O[C@H]4CCC[C@H](C(=O)O)C4)c(C)n3)nnn2C)n1` [Example 366, (1S,3S)-3-((6-(5-((2-butyl-2H-tetrazol-5-yl)methyl)-1-methyl-1H-1,2,3-triazol-4-yl)-2-methylpyridin-3-yl)oxy)cyclohexane-1-carboxylic acid] was tested. Which pIC50 did it give?
The pIC50 was 7.37.

With `Cc1nc(-c2nnn(C)c2Cn2nnc(N(Cc3ccccc3)Cc3ccccc3)n2)ccc1O[C@H]1CCC[C@H](C(=O)O)C1` [Example 367, (1S,3S)-3-((6-(5-((5-(dibenzyl-amino)-2H-tetrazol-2-yl)methyl)-1-methyl-1H-1,2,3-triazol-4-yl)-2-methylpyridin-3-yl)oxy)cyclo-hexane-1-carboxylic acid] as the molecule, how does the pIC50 read?
Its pIC50 is 5.80.

How did the pIC50 turn out when `Cc1nc(-c2nnn(C)c2Cn2nnc(NCc3ccccc3)n2)ccc1O[C@H]1CCC[C@H](C(=O)O)C1` [Example 368, (1S,3S)-3-((6-(5-((5-(benzylamino)-2H-tetrazol-2-yl)methyl)-1-methyl-1H-1,2,3-triazol-4-yl)-2-methyl-pyridin-3-yl)oxy)cyclohexane-1-carboxylic acid] was run?
The pIC50 was 5.99.

How did the pIC50 turn out when `Cc1nc(-c2nnn(C)c2Cc2nnnn2Cc2ccccc2)ccc1O[C@H]1CCC[C@H](C(=O)O)C1` [Example 369, (1S,3S)-3-((6-(5-((1-benzyl-1H-tetrazol-5-yl)methyl)-1-methyl-1H-1,2,3-triazol-4-yl)-2-methylpyridin-3-yl)oxy)cyclohexane-1-carboxylic acid] was run?
The pIC50 was 6.91.

How did the pIC50 turn out when `CCc1nc(-c2nnn(C)c2Cn2cc(CC(C)C)nn2)ccc1O[C@H]1CCC[C@H](C(=O)O)C1` [Example 370, (1S,3S)-3-((2-ethyl-6-(5-((4-isobutyl-1H-1,2,3-triazol-1-yl)methyl)-1-methyl-1H-1,2,3-triazol-4-yl)pyridin-3-yl)oxy)cyclohexane-1-carboxylic acid] was run?
The pIC50 was 7.18.

How did the pIC50 turn out when `CCc1nc(-c2nnn(C)c2Cn2cc(C(C)C)nn2)ccc1O[C@H]1CCC[C@H](C(=O)O)C1` [Example 371, (1S,3S)-3-((2-ethyl-6-(5-((4-isopropyl-1H-1,2,3-triazol-1-yl)methyl)-1-methyl-1H-1,2,3-triazol-4-yl)pyridin-3-yl)oxy)cyclohexane-1-carboxylic acid] was run?
Its pIC50 is 5.81.

How did the pIC50 turn out when `CCCc1cn(Cc2c(-c3ccc(O[C@H]4CCC[C@H](C(=O)O)C4)c(CC)n3)nnn2C)nn1` [Example 372, (1S,3S)-3-((2-ethyl-6-(1-methyl-5-((4-propyl-1H-1,2,3-triazol-1-yl)methyl)-1H-1,2,3-triazol-4-yl)pyridin-3-yl)oxy)cyclohexane-1-carboxylic acid] was run?
Its pIC50 is 6.52.

How did the pIC50 turn out when `Cc1nc(-c2nnn(C)c2Cc2nnn(CC(C)C)n2)ccc1O[C@H]1CCC[C@H](C(=O)O)C1` [Example 373, (1S,3S)-3-((6-(5-((2-isobutyl-2H-tetrazol-5-yl)methyl)-1-methyl-1H-1,2,3-triazol-4-yl)-2-methylpyridin-3-yl)oxy)cyclohexane-1-carboxylic acid] was run?
Its pIC50 is 6.87.

With `Cc1nc(-c2nnn(C)c2Cc2nnnn2CC(C)C)ccc1O[C@H]1CCC[C@H](C(=O)O)C1` [Example 374, (1S,3S)-3-((6-(5-((1-isobutyl-1H-tetrazol-5-yl)methyl)-1-methyl-1H-1,2,3-triazol-4-yl)-2-methylpyridin-3-yl)oxy)cyclohexane-1-carboxylic acid] as the molecule, how does the pIC50 read?
The pIC50 was 6.68.

`CCCCCc1cn(Cc2c(-c3ccc(O[C@H]4CCC[C@H](C(=O)O)C4)c(CC)n3)nnn2C)nn1` [Example 375, (1S,3S)-3-((2-ethyl-6-(1-methyl-5-((4-pentyl-1H-1,2,3-triazol-1-yl)methyl)-1H-1,2,3-triazol-4-yl)pyridin-3-yl)oxy)cyclohexane-1-carboxylic acid] was tested. Which pIC50 did it give?
The pIC50 was 6.23.

How did the pIC50 turn out when `CCn1nnc(NCc2c(-c3ccc(O[C@H]4CCC[C@H](C(=O)O)C4)c(C)n3)nnn2C)n1` [Example 376, (1S,3S)-3-((6-(5-(((2-ethyl-2H-tetrazol-5-yl)amino)methyl)-1-methyl-1H-1,2,3-triazol-4-yl)-2-methylpyridin-3-yl)oxy)cyclohexane-1-carboxylic acid] was run?
The pIC50 was 5.68.

With `Cc1nc(-c2nnn(C)c2CN(CC2CC2)c2nnn(CC3CC3)n2)ccc1O[C@H]1CCC[C@H](C(=O)O)C1` [Example 377, (1S,3S)-3-((6-(5-(((cyclopropyl-methyl)(2-(cyclopropylmethyl)-2H-tetrazol-5-yl)amino)methyl)-1-methyl-1H-1,2,3-triazol-4-yl)-2-methylpyridin-3-yl)oxy)cyclohexane-1-carboxylic acid] as the molecule, how does the pIC50 read?
Its pIC50 is 5.91.

How did the pIC50 turn out when `Cc1nc(-c2nnn(C)c2CNc2nnnn2CC2CC2)ccc1O[C@H]1CCC[C@H](C(=O)O)C1` [Example 378, (1S,3S)-3-((6-(5-(((1-(cyclopropylmethyl)-1H-tetrazol-5-yl)amino)methyl)-1-methyl-1H-1,2,3-triazol-4-yl)-2-methylpyridin-3-yl)oxy)cyclohexane-1-carboxylic acid] was run?
The pIC50 was 6.52.

With `COc1ccc(-n2nnc(NCc3c(-c4ccc(O[C@H]5CCC[C@@H](C(=O)O)C5)c(C)n4)nnn3C)n2)cc1` [Example 379, (1R,3S)-3-((6-(5-(((2-(4-methoxy-phenyl)-2H-tetrazol-5-yl)amino)methyl)-1-methyl-1H-1,2,3-triazol-4-yl)-2-methylpyridin-3-yl)oxy)cyclohexane-1-carboxylic acid] as the molecule, how does the pIC50 read?
The pIC50 was 5.68.

With `Cc1cccc(-n2nnc(NCc3c(-c4ccc(O[C@H]5CCC[C@H](C(=O)O)C5)c(C)n4)nnn3C)n2)c1` [Example 380, (1S,3S)-3-((2-methyl-6-(1-methyl-5-(((2-(m-tolyl)-2H-tetrazol-5-yl)amino)methyl)-1H-1,2,3-triazol-4-yl)pyridin-3-yl)oxy)cyclohexane-1-carboxylic acid] as the molecule, how does the pIC50 read?
The pIC50 was 6.74.

With `Cc1ccccc1-n1nnc(NCc2c(-c3ccc(O[C@H]4CCC[C@H](C(=O)O)C4)c(C)n3)nnn2C)n1` [Example 381, (1S,3S)-3-((2-methyl-6-(1-methyl-5-(((2-(o-tolyl)-2H-tetrazol-5-yl)amino)methyl)-1H-1,2,3-triazol-4-yl)pyridin-3-yl)oxy)cyclohexane-1-carboxylic acid] as the molecule, how does the pIC50 read?
The pIC50 was 6.50.

`CCCCn1nnc(NCc2c(-c3ccc(O[C@H]4CCC[C@H](C(=O)O)C4)c(C)n3)nnn2C)n1` [Example 382, (1S,3S)-3-((6-(5-(((2-butyl-2H-tetrazol-5-yl)amino)methyl)-1-methyl-1H-1,2,3-triazol-4-yl)-2-methylpyridin-3-yl)oxy)cyclo-hexane-1-carboxylic acid] was tested. Which pIC50 did it give?
Its pIC50 is 6.28.

`COc1ccc(-n2nnc(NCc3c(-c4ccc(O[C@H]5CCC[C@H](C(=O)O)C5)c(C)n4)nnn3C)n2)cc1` [Example 383, (1S,3S)-3-((6-(5-(((2-(4-methoxy-phenyl)-2H-tetrazol-5-yl)amino)methyl)-1-methyl-1H-1,2,3-triazol-4-yl)-2-methylpyridin-3-yl)oxy)cyclohexane-1-carboxylic acid] was tested. Which pIC50 did it give?
The pIC50 was 6.29.

— patent US11319315B2, “Cyclohexyl acid triazole azoles as LPA antagonists” (BRISTOL-MYERS SQUIBB COMPANY, priority 2017, dated 2022)
